Reference: patent US20220193025A1, “USE OF DIANHYDROHEXITOL TO ELIMINATE THE COSMETIC EFFECTS OF ACNE, DANDRUFF AND BAD ODORS” (ROQUETTE FRERES, priority 2019, published 2022)

Key:
Malassezia furfur strain = assay: Example 2: microbial population count over 28 days after contamination (microtiter method, TTC); assay type: cell-based; details: for Number of colony forming strains after: 24 h / Number of colony forming strains after: 7 days / Number of colony forming strains after: 14 days / Number of colony forming strains after: 21 days / Number of colony forming strains after: 28 days: 22° C.
Method: The samples are prepared under sterile conditions and deposited in microplates (2-ml wells) with the concentrations hereunder. Two analysis controls were produced: a positive control corresponding to 0.5% Phenonip®; a negative control consisting of 0.85% physiological saline solution. Samples and controls are contaminated by a Malassezia furfur fungal strain with around 1.50×10^4 to 3.80×10^4 colony forming units per milliliter, denoted cfu/ml. After contamination, the samples are carefully mixed by suction-discharge cycles in order to ensure a uniform distribution of the microorganism. The whole is incubated at 22° C. during 28 days. The microbial population is sampled and counted at 24 hours, 7, 14, 21 and 28 days for the bacterial strain. The contaminated samples are collected and then deposited in serial dilutions in microtiter plates, in the presence of culture medium, which is a saline solution with 0.85% sodium chloride, and a dehydrogenase activity indicator reagent, which is 2,3,5-triphenyltetrazolium chloride (denoted TTC). The results are presented in the following pages with the variation of the microbial population over the 28 days of study, for the tested microbial strain. The measurements of microbial populations in the samples collected at each time, are carried out according to the following microtiter method, for one sample collection. In the 96 wells with a volume of 250 μL of a microtiter plate, 20 μL of the collected sample are diluted by a factor of 10 by dispersion in 180 μL of Letheen broth (Difco, ref. 268110) containing 1.5% of Tween 80 (Sigma, ref. […]) and TTC (Sigma, ref. […]). The microplate is incubated for 48 hours at 32.5° C., and the growth of the microorganisms is monitored by the color change, from colorless to red/pink. The highest reciprocal dilution indicating a growth makes it possible to determine the log number of each microorganism at each time. The measurements of microbial populations taken at each collection time are expressed as colony forming units/ml.

Staphylococcus aureus = details: U.S. Pat. No. 9,295,626, table 2; cited from earlier work

With `O[C@@H]1CO[C@H]2[C@@H]1OC[C@@H]2O` [isosorbide, 1,4-3,6-dianhydrosorbitol] the “effect on the strain (conclusion in words)” value (Malassezia furfur strain) was “bactericide”, the “colony forming strain observed” value (Malassezia furfur strain; after 24 hours) was “no colony forming strain is observed” and the “Number of colony forming strains after: 24 h” value (from here on “Number … 24 h”) (Malassezia furfur strain; dose of isosorbide 1%) was 0 colony forming units/ml. For the same compound, the “Number of colony forming strains after: 7 days” value (“Number … 7 days” below) (Malassezia furfur strain; dose of isosorbide 1%) was 0 colony forming units/ml, the “Number of colony forming strains after: 14 days” value (“Number … 14 days” for short) (Malassezia furfur strain; dose of isosorbide 1%) was 0 colony forming units/ml and the “Number of colony forming strains after: 21 days” value (shortened to “Number … 21 days”) (Malassezia furfur strain; dose of isosorbide 1%) was 0 colony forming units/ml. For the same compound, the “Number of colony forming strains after: 28 days” value (“Number … 28 days” below) (Malassezia furfur strain; dose of isosorbide 1%) was 0 colony forming units/ml, the “Number … 24 h” value (Malassezia furfur strain; dose of isosorbide 5%) was 0 colony forming units/ml and the “Number … 7 days” value (Malassezia furfur strain; dose of isosorbide 5%) was 0 colony forming units/ml. For the same compound, the “Number … 14 days” value (Malassezia furfur strain; dose of isosorbide 5%) was 0 colony forming units/ml, the “Number … 21 days” value (Malassezia furfur strain; dose of isosorbide 5%) was 0 colony forming units/ml and the “Number … 28 days” value (Malassezia furfur strain; dose of isosorbide 5%) was 0 colony forming units/ml. For the same compound, the “Number … 24 h” value (Malassezia furfur strain; dose of isosorbide 9%) was 0 colony forming units/ml, the “Number … 7 days” value (Malassezia furfur strain; dose of isosorbide 9%) was 0 colony forming units/ml and the “Number … 14 days” value (Malassezia furfur strain; dose of isosorbide 9%) was 0 colony forming units/ml. The “Number … 21 days” value (Malassezia furfur strain; dose of isosorbide 9%) was 0 colony forming units/ml, the “Number … 28 days” value (Malassezia furfur strain; dose of isosorbide 9%) was 0 colony forming units/ml and the minimum inhibitory concentration (Staphylococcus aureus) was 10%.
